Where “and” joins values, the source holds several entries; their conditions need not be identical. Equal entries are not always repeated. Where two headings read alike, the source gives them in different places.
Test: Single dose clinical study: plasma Compound A pharmacokinetics
Assay type: in vivo, human
Conditions: for AUC(0-inf) / Cmax / Vd/F / half-life / Tmax / AUC(0-t): human, po; for AUC(0-inf): read-out: AUC(0-inf) GM; for Tmax: read-out: tmax Median; for tlag Median (Min, Max): Part B 100 mg cohort
Experimental: This was a single center, single dose, randomized, double blind, placebo controlled study in healthy subjects. It consisted of 4 parts: Parts A, B, C, and D. Each of the four study parts had 2 phases: Prerandomization Phase and Randomization Phase. The Prerandomization Phase lasted up to 30 days and consisted of a Screening Period and a Baseline Period, during which each subject's study eligibility was determined and baseline assessments were performed.
In Part A, there were 8 sequential cohorts of healthy adult subjects (18-50 years of age). Subjects were randomly assigned to Compound A or placebo in a ratio of 6:2, respectively. Subjects in the Compound A cohorts were treated with single ascending doses of 10, 25, 50, 100, 200, 400, 800, or 1200 mg.
In Part B, there were 4 cohorts of healthy adult subjects (18-50 years of age). There were 8 subjects in Cohort 1, with 6 subjects randomly assigned to receive single doses of Compound A (400 mg) and 2 subjects randomly assigned to receive placebo. There were 7 subjects in Cohort 2 and Cohort 3, each with 6 subjects randomly assigned to receive single doses of Compound A (100 and 200 mg, respectively) and 1 subject randomly assigned to receive placebo. The dose of 100 mg selected in Cohort 2 was based on preliminary analysis of Cohort 1 data; this dose was predicted from PK/PD modeling to achieve a sustained CSF cGMP increase from baseline of approximately 200% when administered to steady state, and thereby provided a potentially therapeutic dose for further evaluation in future studies. There were 7 subjects in Cohort 4, with 6 subjects randomly assigned to receive a single dose of Compound A (50 mg [n=3] or 75 mg [n=3]) and 1 subject randomly assigned to receive placebo. The doses for Cohorts 3 and 4 were selected based on PK/PD modeling of the data in Cohorts 1 and 2.
Subjects in Cohort 2 who had received Compound A 100 mg or placebo under fasted conditions (1st Treatment Period) also participated in an evaluation of food effect on the PK of Compound A (2nd Treatment Period). After a washout period of at least 13 days (or 5 half-lives of Compound A, whichever was longer), subjects were admitted to the clinic for baseline assessments (2nd Baseline Period) and then received a single dose of the same treatment (Compound A 100 mg or placebo) after consuming a high fat and high calorie meal over 30 minutes. Blood PK samples were collected at prespecified time points. Safety evaluations were also assessed. CSF was not collected for PD evaluation during the 2nd Treatment Period. A Follow Up Visit occurred on Day 10 of Treatment Period 2.
In Part C, there was 1 cohort of 8 healthy elderly subjects (65 to 85 years of age) randomly assigned to receive a single dose of Compound A 100 mg or placebo in a ratio of 6:2, respectively.
In Part D, 3 cohorts of healthy adult Japanese subjects were randomized in parallel. There were 7 subjects in each cohort and subjects were randomly assigned to receive single doses of Compound A (25, 100, or 400 mg) or placebo in a ratio of 6:1, respectively.
Blood samples for determination of plasma Compound A concentrations were collected from predose to 216 hours postdose. On Day 1, blood PK samples were collected at predose and postdose 0.5 (30 minutes), 1, 1.5, 2, 3, 4, 5, 6, 8, 12, and 18 hours. Thereafter, samples were collected on Day 2 (24 and 36 hours postdose), Day 3 (48 hours postdose), Day 4 (72 hours postdose), Day 5 (96 hours postdose), Day 6 (120 hours postdose), Day 7 (144 hours postdose), and Day 10 (216 hours postdose).
Blood samples for determination of plasma Compound A concentrations were collected from predose to 216 hours postdose. For all cohorts, blood PK samples were collected on Day 1 at predose and postdose at 0.5 (30 minutes), 1, 1.5, 2, 3, 4, 5, 6, 8, 10, 12, and 18 hours. […]

[1] = plasma, 400 mg, plasma, Non-Japanese Subjects (Parts A,B), single oral 400 mg
[2] = plasma, 400 mg, plasma, healthy adults (Parts A,B), single oral 400 mg, fasted
[3] = plasma, 800 mg, plasma, healthy adults (Parts A,B), single oral 800 mg, fasted
[4] = plasma, 1200 mg, plasma, healthy adults (Parts A,B), single oral 1200 mg, fasted
[5] = plasma, healthy adults (Parts A,B), single oral 10 mg, fasted
[6] = plasma, healthy adults (Parts A,B), single oral 25 mg, fasted
[7] = plasma, healthy adults (Parts A,B), single oral 50 mg, fasted
[8] = plasma, healthy adults (Parts A,B), single oral 75 mg, fasted
[9] = plasma, healthy adults (Parts A,B), single oral 100 mg, fasted
[10] = plasma, healthy adults (Parts A,B), single oral 200 mg, fasted
[11] = plasma, healthy adults (Parts A,B), single oral 400 mg, fasted
[12] = plasma, healthy adults (Parts A,B), single oral 800 mg, fasted
[13] = plasma, healthy adults (Parts A,B), single oral 1200 mg, fasted

## COc1ncc(C)c(-c2ccc3c(c2)[nH]c(=O)c2cnn([C@H]4CCOC4)c23)c1C [Compound A, (S)-7-(2-methoxy-3,5-dimethylpyridin-4-yl)-1-(tetrahydrofuran-3-yl)-1H-pyrazolo[4,3-c]quin olin-4(5H)-one]
[1]
  AUC(0-inf): 35800 ng·h/mL
  Tmax: 3 h
plasma, 400 mg, plasma, Non-Japanese Subjects (Parts A,B), single oral 400 mg, read-out: Cmax GM (% CV)
  Cmax: 827 ng/mL
plasma, 400 mg, plasma, Non-Japanese Subjects (Parts A,B), single oral 400 mg, read-out: Vz/F GM (% CV)
  Vd/F: 511 L
plasma, 400 mg, plasma, Non-Japanese Subjects (Parts A,B), single oral 400 mg, read-out: t1/2 Mean (SD) (converted)
  half-life: 34.5 h
plasma, 400 mg, plasma, healthy adults (Parts A,B), single oral 400 mg, fasted, read-out: AUC(0-24 h) GM
  AUC(0-t): 12500 ng·h/mL
plasma, 400 mg, plasma, healthy adults (Parts A,B), single oral 400 mg, fasted, read-out: AUC(0-30 h) GM
  AUC(0-t): 15200 ng·h/mL
plasma, 400 mg, plasma, healthy adults (Parts A,B), single oral 400 mg, fasted, read-out: AUC(0-72 h) GM
  AUC(0-t): 27000 ng·h/mL
[2]
  AUC(0-inf): 36300 ng·h/mL
  Tmax: 2.5 h
plasma, 400 mg, plasma, healthy adults (Parts A,B), single oral 400 mg, fasted, read-out: AUC(0-t) GM
  AUC(0-t): 35500 ng·h/mL
plasma, 400 mg, plasma, healthy adults (Parts A,B), single oral 400 mg, fasted, read-out: Cmax GM
  Cmax: 880 ng/mL
plasma, 400 mg, plasma, healthy adults (Parts A,B), single oral 400 mg, fasted, read-out: Vz/F GM
  Vd/F: 493 L
plasma, 400 mg, plasma, healthy adults (Parts A,B), single oral 400 mg, fasted, read-out: t1/2 Mean (converted)
  half-life: 33.2 h
plasma, 800 mg, plasma, healthy adults (Parts A,B), single oral 800 mg, fasted, read-out: AUC(0-24 h) GM
  AUC(0-t): 29200 ng·h/mL
plasma, 800 mg, plasma, healthy adults (Parts A,B), single oral 800 mg, fasted, read-out: AUC(0-30 h) GM
  AUC(0-t): 34500 ng·h/mL
plasma, 800 mg, plasma, healthy adults (Parts A,B), single oral 800 mg, fasted, read-out: AUC(0-72 h) GM
  AUC(0-t): 54700 ng·h/mL
[3]
  AUC(0-inf): 65000 ng·h/mL
  Tmax: 3.55 h
plasma, 800 mg, plasma, healthy adults (Parts A,B), single oral 800 mg, fasted, read-out: AUC(0-t) GM
  AUC(0-t): 64300 ng·h/mL
plasma, 800 mg, plasma, healthy adults (Parts A,B), single oral 800 mg, fasted, read-out: Cmax GM
  Cmax: 2570 ng/mL
plasma, 800 mg, plasma, healthy adults (Parts A,B), single oral 800 mg, fasted, read-out: Vz/F GM
  Vd/F: 438 L
plasma, 800 mg, plasma, healthy adults (Parts A,B), single oral 800 mg, fasted, read-out: t1/2 Mean (converted)
  half-life: 25.2 h
plasma, 1200 mg, plasma, healthy adults (Parts A,B), single oral 1200 mg, fasted, read-out: AUC(0-24 h) GM
  AUC(0-t): 28500 ng·h/mL
plasma, 1200 mg, plasma, healthy adults (Parts A,B), single oral 1200 mg, fasted, read-out: AUC(0-30 h) GM
  AUC(0-t): 34800 ng·h/mL
plasma, 1200 mg, plasma, healthy adults (Parts A,B), single oral 1200 mg, fasted, read-out: AUC(0-72 h) GM
  AUC(0-t): 60600 ng·h/mL
[4]
  AUC(0-inf): 79700 ng·h/mL
  Tmax: 3.02 h
plasma, 1200 mg, plasma, healthy adults (Parts A,B), single oral 1200 mg, fasted, read-out: AUC(0-t) GM
  AUC(0-t): 78400 ng·h/mL
plasma, 1200 mg, plasma, healthy adults (Parts A,B), single oral 1200 mg, fasted, read-out: Cmax GM
  Cmax: 1780 ng/mL
plasma, 1200 mg, plasma, healthy adults (Parts A,B), single oral 1200 mg, fasted, read-out: Vz/F GM
  Vd/F: 666 L
plasma, 1200 mg, plasma, healthy adults (Parts A,B), single oral 1200 mg, fasted, read-out: t1/2 Mean (converted)
  half-life: 31.9 h
plasma, single oral 100 mg, Fasted
  tlag Median (Min, Max): 0 (0.00, 0.00) h
plasma, single oral 100 mg, Fed (high-fat meal)
  tlag Median (Min, Max): 0.49 (0.00, 0.88) h
[5]
  CL/F GM: 5.41 L/h
  tlag Median: 0.50 h
[6]
  CL/F GM: 5.76 L/h
  tlag Median: 0.00 h
[7]
  CL/F GM: 6.33 L/h
  tlag Median: 0.00 h
[8]
  CL/F GM: 7.57 L/h
  tlag Median: 0.00 h
[9]
  AUC(0-inf) GM: 15000 (20.0) h × ng/mL
  CL/F GM: 6.66 L/h and 6.66 (20.1) L/h
  Cmax GM: 373 (19.8) ng/mL
  t1/2 Mean: 28.6 (6.73) h
  tlag Median: 0.00 h
[10]
  CL/F GM: 8.93 L/h
  tlag Median: 0.00 h
[11]
  CL/F GM: 11.0 L/h
  tlag Median: 0.00 h
[12]
  CL/F GM: 12.3 L/h
  tlag Median: 0.00 h
[13]
  CL/F GM: 15.1 L/h
  tlag Median: 0.00 h
Single doses of 10 to 1200 mg
  time to quantifiable plasma concentrations postdose (most subjects): ≤ 0.5 h

Reference: patent US20220378706A1, “PHARMACEUTICAL COMPOSITION COMPRISING PDE9 INHIBITOR” (Eisai R&D Management Co., Ltd., priority 2017, published 2022)
